pIC50: −log10 of the molar value.
Tests used:
JAK2 = target: T1, JAK2 (Homo sapiens, UniProt O60674); assay: JAK2 microfluidic kinase assay (Caliper EZ Reader II, FAM labeled peptide substrate); type: biochemical
T1 construct: purchased Carna Biosciences
Outline: (§1)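 Compounds, serially diluted 3-fold from 5 μM, were preincubated 10 min with enzyme at ambient temperature before reaction in HEPES/Brij35/MgCl2/DTT buffer (1% DMSO final), tuned to 10% peptide conversion. After EDTA stop, FAM-peptide phosphorylation was measured by Caliper EZ Reader II; IC50 fitted from percent-inhibition curves.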

JAK2V617F = target: T2, JAK2V617F (Homo sapiens, UniProt O60674, V617F); assay: JAK2V617F microfluidic kinase assay (Caliper EZ Reader II, FAM labeled peptide substrate); type: biochemical; details: JAK2V617F 2.5 nM, 1 mM ATP
T2 construct: purchased Carna Biosciences
T2 sequence (O60674 whole entry V617F): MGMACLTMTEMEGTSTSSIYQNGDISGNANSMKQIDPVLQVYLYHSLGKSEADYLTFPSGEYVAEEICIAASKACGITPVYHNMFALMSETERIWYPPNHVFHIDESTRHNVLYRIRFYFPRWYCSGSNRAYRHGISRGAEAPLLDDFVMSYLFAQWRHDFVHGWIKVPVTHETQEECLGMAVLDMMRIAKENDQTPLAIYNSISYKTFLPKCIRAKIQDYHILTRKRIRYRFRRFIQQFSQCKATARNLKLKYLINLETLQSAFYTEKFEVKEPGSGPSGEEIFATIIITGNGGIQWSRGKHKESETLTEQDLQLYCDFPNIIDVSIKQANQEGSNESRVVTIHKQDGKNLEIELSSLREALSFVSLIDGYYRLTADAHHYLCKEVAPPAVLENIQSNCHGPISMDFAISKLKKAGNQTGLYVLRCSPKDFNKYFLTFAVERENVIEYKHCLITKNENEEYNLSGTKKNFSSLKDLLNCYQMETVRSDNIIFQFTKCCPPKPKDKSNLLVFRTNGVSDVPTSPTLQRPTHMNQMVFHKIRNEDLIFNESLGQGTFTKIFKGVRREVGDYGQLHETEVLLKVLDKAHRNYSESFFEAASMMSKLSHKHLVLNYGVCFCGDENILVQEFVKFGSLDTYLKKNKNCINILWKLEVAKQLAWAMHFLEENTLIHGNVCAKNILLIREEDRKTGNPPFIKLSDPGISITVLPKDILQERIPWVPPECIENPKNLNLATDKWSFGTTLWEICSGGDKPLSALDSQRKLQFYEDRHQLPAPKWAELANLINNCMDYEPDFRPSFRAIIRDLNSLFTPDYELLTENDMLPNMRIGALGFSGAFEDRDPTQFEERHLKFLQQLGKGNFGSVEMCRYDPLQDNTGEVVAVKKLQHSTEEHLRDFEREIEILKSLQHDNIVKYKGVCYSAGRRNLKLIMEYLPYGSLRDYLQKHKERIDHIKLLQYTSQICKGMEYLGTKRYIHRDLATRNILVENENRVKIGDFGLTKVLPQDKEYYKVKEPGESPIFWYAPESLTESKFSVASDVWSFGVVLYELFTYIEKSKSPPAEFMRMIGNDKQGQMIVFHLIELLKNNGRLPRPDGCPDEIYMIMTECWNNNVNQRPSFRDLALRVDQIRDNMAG
Outline: as §1

[1] = Liver microsomes study, Phase I stability (HLM); type: in vitro ADME, human; details: pH 7.4; human liver microsomes 0.5 mg/mL, 1 μM test article; read-out: HLM Clint
Method: (§2) Commercially available liver microsomes (MsLM vendor: XENOTECH; RLM, DLM, MkL, HLM vendor: Corning) were used for study the Phase I stability of test articles. […] The reaction was initiated by addition of 80 μL of the NADPH regenerating system to 320 µL of each incubation mixture per time point. […] The 0-minute samples were prepared by addition of an 80 μL aliquot of each incubation mixture to 400 μL quench reagent to precipitate proteins. And then a 20 μL aliquot of the NADPH regenerating system was added. At 10, 30, and 90 minutes, the reaction will be stopped by the addition of cold acetonitrile solution containing tolbutamide and propanolol served as internal standard. The samples taken at all time points were centrifuged at 4000×g for 15 minutes. 80 μL of supernatant are taken into 96-well assay plates pre-added with 160 μL ultrapure water, and then analyzed by LC/MS/MS(Shimadzu LC30AD & API4000/API5000)). Concentrations of test articles, control compounds in the samples were determined by using LC/MS/MS) method. Plotting of the chromatograms and peak area integrations are carried out by Analyst (AB Sciex).
(§3) In the determination of the in vitro elimination constant, ke, of the control compounds, the analyte/internal standard peak area ratios will be converted to percentage remaining (% Remaining) with the following equation: […]
(§4) The slope was measured by the natural logarithm of the percentage of the residual compound and time, T½ and CLint were calculated according to the following formulas, V/M was equal to the 1/concentration of protein.

[2] = Liver microsomes study, Phase I stability (RLM); type: in vitro ADME, rat; details: pH 7.4; rat liver microsomes 0.5 mg/mL, 1 μM test article; read-out: RLM Clint
Method: as §2, §3, §4

JAK1 = target: T3, JAK1 (Homo sapiens, UniProt P23458); assay: JAK1 microfluidic kinase assay (Caliper EZ Reader II, FAM labeled peptide substrate); type: biochemical; details: IC50 JAK1 (5 nM) (1 m MATP), JAK1 5 nM, 1 mM ATP
T3 construct: purchased Carna Biosciences
T3 sequence (P23458 whole entry): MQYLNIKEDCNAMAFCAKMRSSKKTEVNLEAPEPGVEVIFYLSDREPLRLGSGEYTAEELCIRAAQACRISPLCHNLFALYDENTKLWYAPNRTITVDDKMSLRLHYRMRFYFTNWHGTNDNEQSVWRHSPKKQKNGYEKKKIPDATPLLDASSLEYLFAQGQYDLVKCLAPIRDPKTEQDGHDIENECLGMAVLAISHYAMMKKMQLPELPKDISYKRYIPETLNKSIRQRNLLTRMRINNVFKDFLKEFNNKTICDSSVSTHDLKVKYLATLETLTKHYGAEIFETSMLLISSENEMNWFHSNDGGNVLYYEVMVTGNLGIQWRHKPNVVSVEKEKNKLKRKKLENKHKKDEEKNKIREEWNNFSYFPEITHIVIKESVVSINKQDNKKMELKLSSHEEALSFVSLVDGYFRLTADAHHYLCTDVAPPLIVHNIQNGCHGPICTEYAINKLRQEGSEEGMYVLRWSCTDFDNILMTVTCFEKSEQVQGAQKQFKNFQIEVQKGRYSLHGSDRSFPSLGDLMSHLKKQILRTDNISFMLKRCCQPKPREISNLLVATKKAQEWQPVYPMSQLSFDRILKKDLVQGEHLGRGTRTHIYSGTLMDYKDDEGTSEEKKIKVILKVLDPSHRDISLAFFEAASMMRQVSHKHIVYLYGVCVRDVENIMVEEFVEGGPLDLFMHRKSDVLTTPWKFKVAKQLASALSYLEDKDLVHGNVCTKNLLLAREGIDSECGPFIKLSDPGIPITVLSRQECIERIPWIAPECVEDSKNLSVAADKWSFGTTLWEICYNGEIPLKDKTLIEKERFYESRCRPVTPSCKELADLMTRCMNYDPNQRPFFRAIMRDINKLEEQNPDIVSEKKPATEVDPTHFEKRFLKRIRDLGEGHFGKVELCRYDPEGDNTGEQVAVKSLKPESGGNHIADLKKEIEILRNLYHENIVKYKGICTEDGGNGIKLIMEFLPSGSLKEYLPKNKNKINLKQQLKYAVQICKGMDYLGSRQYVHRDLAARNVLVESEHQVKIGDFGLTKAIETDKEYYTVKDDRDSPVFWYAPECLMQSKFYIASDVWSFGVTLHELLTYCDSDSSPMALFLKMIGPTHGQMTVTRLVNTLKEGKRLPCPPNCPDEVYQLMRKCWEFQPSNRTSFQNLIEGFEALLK
Outline: as §1

TYK2 = target: T4, TYK2 (Homo sapiens, UniProt P29597); assay: TYK2 microfluidic kinase assay (Caliper EZ Reader II, FAM labeled peptide substrate); type: biochemical
T4 construct: purchased Carna Biosciences
T4 sequence (P29597 whole entry): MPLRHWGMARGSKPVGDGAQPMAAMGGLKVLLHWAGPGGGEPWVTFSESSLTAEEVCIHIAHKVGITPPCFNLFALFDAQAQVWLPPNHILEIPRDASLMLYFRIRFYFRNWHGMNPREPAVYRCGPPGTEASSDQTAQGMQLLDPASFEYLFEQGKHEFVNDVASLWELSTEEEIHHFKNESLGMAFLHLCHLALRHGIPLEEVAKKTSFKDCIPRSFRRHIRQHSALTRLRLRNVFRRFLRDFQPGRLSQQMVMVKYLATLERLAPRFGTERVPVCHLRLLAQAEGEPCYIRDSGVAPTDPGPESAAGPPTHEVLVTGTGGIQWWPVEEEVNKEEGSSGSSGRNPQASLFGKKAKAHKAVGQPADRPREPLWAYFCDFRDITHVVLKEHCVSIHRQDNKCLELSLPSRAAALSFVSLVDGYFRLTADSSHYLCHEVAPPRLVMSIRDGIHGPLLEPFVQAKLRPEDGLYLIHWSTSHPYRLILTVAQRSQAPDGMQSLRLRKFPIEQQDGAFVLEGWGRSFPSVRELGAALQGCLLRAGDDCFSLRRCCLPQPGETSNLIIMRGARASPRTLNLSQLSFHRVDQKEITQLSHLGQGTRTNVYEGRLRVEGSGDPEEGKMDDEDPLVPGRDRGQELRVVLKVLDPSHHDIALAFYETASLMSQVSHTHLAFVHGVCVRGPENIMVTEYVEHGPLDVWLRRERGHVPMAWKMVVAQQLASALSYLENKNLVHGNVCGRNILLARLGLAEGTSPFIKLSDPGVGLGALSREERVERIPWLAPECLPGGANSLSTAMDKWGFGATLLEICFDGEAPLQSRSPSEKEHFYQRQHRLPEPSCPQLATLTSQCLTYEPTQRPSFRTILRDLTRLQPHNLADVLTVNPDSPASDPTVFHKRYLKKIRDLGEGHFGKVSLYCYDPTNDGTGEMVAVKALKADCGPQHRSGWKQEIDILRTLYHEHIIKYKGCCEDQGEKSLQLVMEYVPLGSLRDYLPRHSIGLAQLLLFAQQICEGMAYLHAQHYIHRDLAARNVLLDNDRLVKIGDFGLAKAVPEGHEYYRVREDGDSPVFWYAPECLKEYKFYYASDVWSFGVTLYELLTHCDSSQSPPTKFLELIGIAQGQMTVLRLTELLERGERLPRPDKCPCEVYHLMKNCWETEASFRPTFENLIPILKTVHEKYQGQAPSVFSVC
Outline: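 Assay run at ~10% substrate conversion in 50 mM HEPES pH buffer with Brij35, MgCl2 and DTT; compounds tested up to 5 μM in 3-fold dilutions at 1% DMSO. JAK1 reacted 120 min, JAK2 20 min, JAK2V617F 30 min, TYK2 10 min before an EDTA stop.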

[3] = IC50 JAK2 ([…]) (1 mM ATP), 1 mM ATP
[4] = IC50 TYK2 (10 nM) (Km ATP), TYK2 10 nM, Km ATP
[5] = IC50 JAK2 ([…]) (Km ATP), Km ATP
[6] = IC50 TYK2 ([…]) (1 mM ATP), TYK2 […], 1 mM ATP

T1 sequence (O60674 whole entry): as the sequence (O60674 whole entry V617F) above, with F617V counted along it

| SMILES | pIC50 (JAK2; [3]) | pIC50 (JAK2V617F) | microsomal CLint at 1 μM [1] [µL/min/mg] | microsomal CLint at 1 μM [2] [µL/min/mg] | pIC50 (JAK1) | pIC50 (TYK2; [4]) | pIC50 (JAK2; [5]) | pIC50 (TYK2; [6]) |
| --- | --- | --- | --- | --- | --- | --- | --- | --- |
| Cc1cnc(Nc2cnn(C3CCN(C(=O)C4CC4)CC3)c2)nc1-c1ccc(C(=O)NCC2(C#N)CC2)cc1 [Example 158, N-((1-cyanocyclopropyl)methyl)-4-(2-((1-(1-(cyclopropanecarbonyl)piperidin-4-yl)-1H-pyrazol-4-yl)amino)-5-methylpyrimidin-4-yl)benzamide] | 9.06 | 7.55 | 142 | 124 | 7.62 | – | – | – |
| Cc1cnc(Nc2cnn(C3CC(C#N)C3)c2)nc1-c1ccc(C(=O)NCC#N)cc1 (centres unmarked) [Example 106, 4-(2-((1-(3-Cyanocyclobutyl)-1H-pyrazol-4-yl)amino)-5-methylpyrimidin-4-yl)-N-(cyanomethyl)benzamide] | 8.66 | 7.63 | 11.1 | 38.4 | 7.83 | – | 9.60 | – |
| Cc1cnc(Nc2cnn(C3CCN(C)CC3)c2)nc1-c1ccc(C(=O)N[C@H](C#N)C(C)C)cc1 [Example 174, (S)—N-(1-cyano-2-methylpropyl)-4-(5-methyl-2-((1-(1-methylpiperidin-4-yl)-1H-pyrazol-4-yl)amino)pyrimidin-4-yl)benzamide] | 9.07 | – | 45.7 | 115 | 8.89 | – | – | 8.88 |
| Cc1cnc(Nc2cnn(C3CCN(C(=O)[C@H]4CC4(C)C)CC3)c2)nc1-c1ccc(C(=O)NCC#N)cc1 [Example 143, (S)—N-(cyanomethyl)-4-(2-((1-(1-(2,2-dimethylcyclopropanecarbonyl)piperidin-4-yl)-1H-pyrazol-4-yl)amino)-5-methylpyrimidin-4-yl)benzamide] | 9.40 | 7.76 | 1430 | 599 | 7.81 | – | – | – |
| Cc1cnc(Nc2cnn(C(C)C(F)(F)F)c2)nc1-c1ccc(C(=O)NCC#N)cc1 (centres unmarked) [Example 112, N-(cyanomethyl)-4-(5-methyl-2-((1-(1,1,1-trifluoropropan-2-yl)-1H-pyrazol-4-yl)amino)pyrimidin-4-yl)benzamide] | 7.10 | 6.92 | 49.1 | 76.4 | 8.19 | – | – | – |
| Cc1cnc(Nc2cnn(C3CCOCC3)c2)nc1-c1ccc(C(=O)NCC2(C#N)CC2)cc1 [Example 37, N-((1-cyanocyclopropyl)methyl)-4-(5-methyl-2-((1-(tetrahydro-2H-pyran-4-yl)-1H-pyrazol-4-yl)amino)pyrimidin-4-yl)benzamide] | 7.30 | – | 20.7 | 40.7 | – | 7.54 | 9.27 | – |
| COCCNC(=O)c1ccc(-c2nc(Nc3cnn(C)c3)ncc2C)cc1 [Example 6, N-(2-Methoxyethyl)-4-(5-methyl-2-((1-methyl-1H-pyrazol-4-yl)amino)pyrimidin-4-yl)benzamide] | – | 6.17 | 6.6 | 2.58 | 7.12 | – | 8.08 | – |
| CC(C)(C#N)CNC(=O)c1ccc(-c2nc(Nc3cnn(C4CC4)c3)ncc2Cl)cc1 [Example 123, 4-(5-Chloro-2-((1-cyclopropyl-1H-pyrazol-4-yl)amino)pyrimidin-4-yl)-N-(2-cyano-2-methylpropyl)benzamide] | 7.89 | 7.25 | 35.2 | 77.3 | 7.72 | – | – | – |
| Cc1cnc(Nc2cnn(C3CC3)c2)nc1-c1ccc(C(=O)N2CC(C#N)C2)c(F)c1 [Example 140, 1-(4-(2-((1-Cyclopropyl-1H-pyrazol-4-yl)amino)-5-methylpyrimidin-4-yl)-2-fluorobenzoyl)azetidine-3-carbonitrile] | 6.81 | 6.47 | 9.1 | 628 | 6.59 | – | 8.19 | – |
| Cc1cnc(Nc2cnn(C3CCN(C(=O)C4(F)CC4)CC3)c2)nc1-c1ccc(C(=O)NCC#N)cc1 [Example 152, N-(cyanomethyl)-4-(2-((1-(1-(1-fluorocyclopropanecarbonyl)piperidin-4-yl)-1H-pyrazol-4-yl)amino)-5-methylpyrimidin-4-yl)benzamide] | > 9.60 | 9.17 | 96 | 85.9 | 7.83 | – | – | – |
| Cc1cnc(Nc2cnn(C3C[C@@H](C)O[C@@H](C)C3)c2)nc1-c1ccc(C(=O)NCC#N)cc1 (some centres unmarked) [Example 68] | – | 8.04 | 141 | 228 | 7.52 | – | – | – |
| Cc1cnc(Nc2cnn(C3CCN(C)CC3)c2)nc1-c1ccc(C(=O)N[C@H](C#N)C2CC2)cc1 [Example 180, (S)—N-(cyano(cyclopropyl)methyl)-4-(5-methyl-2-((1-(1-methylpiperidin-4-yl)-1H-pyrazol-4-yl)amino)pyrimidin-4-yl)benzamide] | 9.23 | – | 23.1 | 91.8 | 9.07 | – | – | 8.98 |
| Cc1cnc(Nc2cnn(C3CC3)c2)nc1-c1ccc(C(=O)NC2(C#N)CC2)cc1 [Example 160, N-(1-cyanocyclopropyl)-4-(2-((1-cyclopropyl-1H-pyrazol-4-yl)amino)-5-methylpyrimidin-4-yl)benzamide] | 7.15 | – | 16.9 | 110 | – | 7.77 | 9.14 | – |

The next lines start with the values.

| pIC50 (JAK2; [3]) | pIC50 (JAK2V617F) | microsomal CLint at 1 μM [1] [µL/min/mg] | microsomal CLint at 1 μM [2] [µL/min/mg] | pIC50 (JAK1) | pIC50 (TYK2; [4]) | pIC50 (JAK2; [5]) | pIC50 (TYK2; [6]) | SMILES |
| --- | --- | --- | --- | --- | --- | --- | --- | --- |
| 9.16 | – | 68.4 | 54.9 | – | 7.92 | – | – | Cc1cnc(Nc2cnn(C3CCN(C(=O)C4CC4)CC3)c2)nc1-c1ccc(C(=O)N[C@@H](C)C#N)cc1 [Example 163, (S)—N-(1-cyanoethyl)-4-(2-((1-(1-(cyclopropanecarbonyl)piperidin-4-yl)-1H-pyrazol-4-yl)amino)-5-methylpyrimidin-4-yl)benzamide] |
| – | 7.52 | 19.4 | 38.6 | 7.86 | – | – | – | Cc1cnc(Nc2cnn(C3CCOCC3)c2)nc1-c1ccc(C(=O)N[C@@H](C)C#N)cc1 [Example 144, (S)—N-(1-cyanoethyl)-4-(5-methyl-2-((1-(tetrahydro-2H-pyran-4-yl)-1H-pyrazol-4-yl)amino)pyrimidin-4-yl)benzamide] |
| – | 8.14 | 42.9 | 32.5 | 7.91 | – | – | – | Cc1cnc(Nc2cnn(C3C[C@H]4CC[C@@H](C3)O4)c2)nc1-c1ccc(C(=O)N[C@@H](C)C#N)cc1 (stereo partly drawn) [Example 70, 4-(2-((1-((1R,5S)-8-oxabicyclo[3.2.1]octan-3-yl)-1H-pyrazol-4-yl)amino)-5-methylpyrimidin-4-yl)-N—((S)-1-cyanoethyl)benzamide] |
| – | 6.44 | 2 | 19.2 | 7.12 | – | 8.35 | – | Cc1cnc(Nc2cnn(C)c2)nc1-c1ccc(C(=O)N[C@H](C)C#N)cc1 [Example 101, (R)—N-(1-cyanoethyl)-4-(5-methyl-2-((1-methyl-1H-pyrazol-4-yl)amino)pyrimidin-4-yl)benzamide] |
| – | 8.35 | 14.7 | 69 | 7.92 | – | – | – | Cc1cnc(Nc2cnn([C@H]3CC[C@H](C#N)CC3)c2)nc1-c1ccc(C(=O)N[C@@H](C)C#N)cc1 [Example 154, 4-(2-((1-(Trans-4-cyanocyclohexyl)-1H-pyrazol-4-yl)amino)-5-methylpyrimidin-4-yl)-N—((S)-1-cyanoethyl)benzamide] |
| 9.46 | 7.80 | 6.7 | 80.1 | 7.92 | – | – | – | CO[C@H]1CC[C@H](n2cc(Nc3ncc(C)c(-c4ccc(C(=O)N[C@@H](C)C#N)cc4)n3)cn2)CC1 [Example 91, N—((S)-1-cyanoethyl)-4-(2-((1-(trans-4-methoxycyclohexyl)-1H-pyrazol-4-yl)amino)-5-methylpyrimidin-4-yl)benzamide] |

From US12595253B2, “Benzamides of pyrazolylamino-pyrimidinyl derivatives, and compositions and methods thereof” (LYNK PHARMACEUTICALS CO. LTD., priority 2019, dated 2026)
